US11903912B2, “Composition for preventing and treating breast cancer including selenopsammaplin A as active ingredients” (Seoul National University R & DB Foundation, priority 2019, dated 2024)

Legend:
Format in all cases: cell-based
Conditions in all cases: SRB assay, cultured 3 days
[1] = system: SNU638 human gastric cancer cells; assay: SRB cytotoxicity test, SNU638
Protocol: (§1) A cytotoxicity test was performed using synthesized selenopsammaplin A and derivatives thereof (Lee S K et al […] Chem Biol Interact 115:215-28).
(§2) The cytotoxicity test was performed on a total of five representative cancer cell lines. The cytotoxicity of each compound was measured using an SRB assay method (human lung cancer cells, A549; human colon cancer cells, HCT116; human breast cancer cells, MDA-MB231; human liver cancer cells, SK-HEP-1; human gastric cancer cells, SNU638).
(§3) Each cell line was sub-cultured once or twice using Roswell Park Memorial Institute (RPMI) medium 1640 (RPMI 1640) or Dulbecco's Modified Eagle's Medium (DMEM) containing 10% fetal bovine serum (FBS) inactivated by heat, 100 units/mL of penicillin, 100 μg/mL of streptomycin, and 250 ng/mL of amphotericin B at 37° C. for 1 week under a 5% CO2 condition. All cells were […] in liquid nitrogen, and then passaged three or more times to be used in the experiment. The effects of compounds on cell growth were measured using a sulforhodamine B (SRB) method (Lee et al (1998) Chemico-Biol Interact 115:215-228).
(§4) Specifically, each human cancer cell line used in the present invention was sub-cultured in an RPMI medium containing 10% FBS, 1% PSF, and the like, and 10 μl of a sample dissolved in 10% DMSO and 190 μl (4-5×10^4 cells/ml) of the cell suspension were added to each well of a 96-well plate and cultured for 3 days. 190 μl of the cell suspension was added to at least 16 wells and cultured for 30 minutes, and used as a zero-day control. The cultured cells were fixed with 10% trichloroacetic acid (TCA) and then stained with an SRB solution, and the staining solution was dissolved with 10 mM Tris-base, and then absorbance at 515 nm was measured. Using the case of culturing in 10% DMSO as a control, cell viability according to each test material treatment was measured using Equation 1 below. Etoposide was used as a positive control. % Viability=(OD(sample)−OD(0-day))/(OD(10% DMSO)−OD(0-day))×100 [Equation 1]
(§5) Assuming that a control not-treated with the sample was set at 100%, the values of sample-treated groups were expressed as percentage with respect to the control, and each test material treatment results were obtained as the mean±SEM of two or three tests. The IC50 value is the concentration of the test material for a 50% survival rate.

[2] = system: HCT116 human colon cancer cells; assay: SRB cytotoxicity test, HCT116
Protocol: as §1, §2, §3, §4, §5

[3] = system: MDA-MB231 human breast cancer cells; assay: SRB cytotoxicity test, MDA-MB231
Protocol: as §1, §2, §3, §4, §5

## O=C(NCC[Se][Se]CCNC(=O)/C(Cc1ccccc1)=N/O)/C(Cc1ccccc1)=N/O [Compound 2, (2E,2′E)-N,N′-(diselenediylbis(ethane-2,1-diyl))bis(2-(hydroxyimino)-3-phenylpropanamide)]
[1]
  IC50: 0.05 µM
[2]
  IC50: 0.09 µM
[3]
  IC50: 0.06 µM
